From patent publication US8304448B2, “Method for the treatment of metabolic disorder containing benzazole derivatives as an active ingredient” (Korea Research Institute of Bioscience and Biotechnology, priority 2006, dated 2012)

Tested on: DGAT
Test: Assay for inhibitory effect on DGAT in cell (intracellular triglyceride production from [14C]acetate in HepG2 cells)
Type: cell-based, human
Procedure: The effect of the benzazole derivatives of Chemical Formula 1 in accordance with the present invention on DGAT was examined with HepG2 cells, hepatic cells derived from the human liver, as follows.
HepG2 cells, purchased from ATCC, were cultured in Eagle's minimum essential medium (MEM), 2 mM L-glutamine, with Earle's balanced salt solution (BSS) adjusted to contain, 1.5 g/L sodium bicarbonate, 0.1 mM non-essential amino acids and 1 mM sodium pyruvate, supplemented with 10% fetal bovine serum (FBS) and 1% antibiotics (100 U/ml penicillin and 100 µg/ml streptomycin) at 37° C. in a 5% CO2 incubator.
Intracellular DGAT activity was represented by the amount of triglycerides produced in the cultured HepG2 cells while the compounds (4, 8, 10, 22, 24, 25, 26, 39 and 31) of Chemical Formula 1 were assayed for inhibitory activity against DGAT by measuring the change in intracellular triglyceride production after the addition thereof.
Cells were plated at a density of 1×10^6 cell/ml per well into 24-well plates and incubated for 24 hours. Then, the medium was exchanged with FBS-free MEM and pre-treated with samples for 1 hour. Thereafter, 0.2 mCi of [^14C]acetate (Amersham) was added as a substrate to the cells, followed by incubation for 1 hour. The production of triglyceride was catalyzed by DGAT so that DGAT activity was determined by the amount of the triglyceride product, which could be measured by radioactivity. For use, the samples were dissolved in dimethyl sulfoxide (DMSO). In a control, triglycerides were synthesized using DMSO without any sample, with the production yield thereof given as 100.
The amount of the glyceride products synthesized was determined as follows. After completion of synthesis, the cells were suspended in PBS (phosphate-buffer-saline) to remove the substrate [^14C]acetate, whether unabsorbed into the cells or remaining unreacted, and total lipids, including triglycerides, were extracted twice for 30 min with 0.5 ml of an extraction solvent mixture (hexane:isopropanol=3:2, v:v). 1 ml of the extract was concentrated with nitrogen gas.
The total lipid residue thus formed was dissolved in an organic solvent mixture (chloroform:methanol=2:1) and loaded dropwise onto a thin layer chromatography plate (TLC; silica gel 60F254, 0.5 mm, Merck) using a mixture of 80:20:1 hexane:diethylether:acetic acid (v:v:v) as a developing solvent. After the separation of triglycerides (Rf value: 0.4) on TLC, the plate was brought into contact with an autoradiographic film for three hours, followed by image analysis (BAS-1500, Fuji Photo Film Co. Ltd.) to determine the [^14C] radioactivity of the triglycerides. The cells left after the extraction were suspended in 0.3 ml of a 0.1 N sodium hydroxide solution to measure the cellular protein concentration thereof.
The empirical values were obtained by dividing triglyceride radioactivity by protein level, with correction for experimental errors between test groups.

## O=C(NCc1ccco1)c1ccc2oc(COc3ccc(C45CC6CC(CC(C6)C4)C5)cc3)nc2c1 [Cpd. 22, 2-(4-adamantan-1-yl-phenoxymethyl)-benzoxazole-5-carboxylic acid (furan-2-ylmethyl)-amide]
10 μM
  inhibition of the biosynthesis of triglycerides: 32.2%
Final level 10 μM, DMSO control given as 100
  Production Yield of Triglyceride (%): 67.8 ± 7.2%
